Series [1] concerns CWR22R. Kind of series: Antiproliferative activity against human 22Rv1 cells after 96 hrs by propidium iodide staining based fluorescence 2D monolayer assay. Format: functional, cell-based. Conditions: 22Rv1, 96 h.
Series [2] deals with DU-145. Put plainly: Antiproliferative activity against human DU145 cells after 96 hrs by propidium iodide staining based fluorescence 2D monolayer assay. Type of series: functional, cell-based. Conditions: DU-145, 96 h.
Series [3] concerns LNCaP. Put plainly: Antiproliferative activity against human LNCAP cells after 96 hrs by propidium iodide staining based fluorescence 2D monolayer assay. Type of series: functional, cell-based.
Series [4] relates to VCaP. Put plainly: Antiproliferative activity against human VCaP cells after 96 hrs by propidium iodide staining based fluorescence 2D monolayer assay. Format: functional, cell-based.
The conditions of series [5]: 96 h.
Description: Solubility in RPMI1640 culture medium at <30 uM incubated for 4 days by microscopic analysis
The conditions of series [6]: 33000 µM.
Description: Solubility in 100% DMSO at 33 mM at -20 degC

Turning to `CC(O)(CS(=O)(=O)c1ccc(OC(F)(F)F)cc1)C(=O)Nc1ccc(C#N)c(C(F)(F)F)c1` (stereo not given), the IC50 (commonly the concentration needed to halve the response being measured) in series [1] was 17 µM; in series [2], 27.3 µM; in series [3], 31.6 µM; in series [4], 32.8 µM. Moreover, the solubility entry in series [5] and in series [6] was “Soluble” in each case.

Turning to `CC(O)(COc1ccc(F)c(F)c1)C(=O)Nc1ccc(C#N)c(C(F)(F)F)c1` (stereo not given), the IC50 in series [1] came to 35.5 µM; in series [2], 45.2 µM; in series [3] it was 19 µM; in series [4], 25.6 µM. Also, the solubility entry in series [5] and in series [6] was “Soluble” in each case.

For `CC(O)(COc1ccc(F)cc1F)C(=O)Nc1ccc([N+](=O)[O-])c(C(F)(F)F)c1` (stereo not given), the IC50 in series [1] was 20.2 µM; in series [2], 22.4 µM; in series [3], 10.1 µM; in series [4], 20.9 µM. For the same molecule, the solubility result in series [5] and in series [6] was “Soluble” in each case.

With `CC1(C)C(=O)N(c2cccc(C(F)(F)F)c2)C(=O)N1c1ccc(C#N)cc1C(F)(F)F`, the IC50 is 59.3 µM in series [1], 100 µM in series [2], 18.3 µM in series [3] and 100 µM in series [4]. Moreover, the solubility entry in series [5] and in series [6] was “Soluble” each time.

On to `CC(O)(CSc1ccc(F)cc1)C(=O)Nc1ccc(C#N)cc1C(F)(F)F` (stereo not given), for which the IC50 worked out at 30.1 µM in series [1], 43.3 µM in series [2], 26.4 µM in series [3] and 45.5 µM in series [4]. The solubility entry in series [5] and in series [6] was “Soluble” each time.

As for `CC(O)(CS(=O)(=O)c1ccccc1OC(F)(F)F)C(=O)Nc1ccc([N+](=O)[O-])cc1C(F)(F)F` (stereo not given), the IC50 was found to be 28.8 µM in series [1], 39 µM in series [2], 17.8 µM in series [3] and 51.7 µM in series [4]. Besides, the solubility entry in series [5] and in series [6] was “Soluble” throughout.

On to `C[C@](O)(CS(=O)(=O)c1cccc(C(F)(F)F)c1)C(=O)Nc1ccc(C#N)c(C(F)(F)F)c1`, for which the IC50 in series [1] amounted to 25.7 µM; in series [2], 45.2 µM; in series [3] it was 13.2 µM; in series [4], 39.9 µM. The solubility result in series [5] and in series [6] was “Soluble” throughout.

As for `CC(O)(COc1ccc(C(F)(F)F)cc1)C(=O)Nc1ccc([N+](=O)[O-])c(C(F)(F)F)c1` (stereo not given), the IC50 in series [1] turned out to be 16.2 µM; in series [2], 25.9 µM; in series [3], 17.2 µM; in series [4] it was 10.9 µM. The solubility entry in series [5] and in series [6] was “Soluble” in each case.

As to `CC(O)(CSc1ccc(C(F)(F)F)cc1)C(=O)Nc1ccc([N+](=O)[O-])cc1C(F)(F)F` (stereo not given), the IC50 in series [1] turned out to be 14.6 µM; in series [2], 19.2 µM; in series [3] it was 8.66 µM; in series [4] it was 17.1 µM. Besides, the solubility entry in series [5] and in series [6] was “Soluble” each time.

Take `CC(O)(CS(=O)(=O)c1cccc(C(F)(F)F)c1)C(=O)Nc1ccc([N+](=O)[O-])cc1C(F)(F)F` (stereo not given): the IC50 in series [1] turned out to be 18.1 µM; in series [2], 32 µM; in series [3], 16.8 µM; in series [4] it was 38.7 µM. The solubility entry in series [5] and in series [6] was “Soluble” each time.

Turning to `CC(O)(CS(=O)(=O)c1ccc(C(F)(F)F)cc1)C(=O)Nc1ccc(C#N)cc1C(F)(F)F` (stereo not given), the IC50 in series [1] was 27.9 µM; in series [2], 44.6 µM; in series [3], 32.9 µM; in series [4], 43.3 µM. Further, the solubility result in series [5] and in series [6] was “Soluble” each time.

As to `CC(O)(COc1ccccc1C(F)(F)F)C(=O)Nc1ccc(C#N)cc1C(F)(F)F` (stereo not given), the IC50 in series [1] was found to be 19.6 µM; in series [2] it was 33.2 µM; in series [3] it was 14 µM; in series [4], 21.9 µM. In addition, the solubility entry in series [5] and in series [6] was “Soluble” in each case.

For `CC(O)(CSc1ccccc1C(F)(F)F)C(=O)Nc1ccc(C#N)cc1C(F)(F)F` (stereo not given), the IC50 in series [1] was found to be 11.6 µM; in series [2], 18.4 µM; in series [3], 10.7 µM; in series [4] it was 18.3 µM. For the same molecule, the solubility entry in series [5] and in series [6] was “Soluble” each time.

Turning to `CC(O)(COc1cccc(OC(F)(F)F)c1)C(=O)Nc1ccc(C#N)c(C(F)(F)F)c1` (stereo not given), the IC50 in series [1] came to 9.79 µM; in series [2] it was 16.4 µM; in series [3], 9.83 µM; in series [4] it was 9.91 µM. In addition, the solubility entry in series [5] and in series [6] was “Soluble” in each case.

`CC(O)(COc1cccc(OC(F)(F)F)c1)C(=O)Nc1ccc(C#N)cc1C(F)(F)F` (stereo not given): the IC50 in series [1] is 28.7 µM; in series [2], 35.9 µM; in series [3], 63.4 µM; in series [4], 56.3 µM. The solubility result in series [5] and in series [6] was “Soluble” each time.

As for `CC(O)(COc1ccc(F)c(F)c1)C(=O)Nc1ccc(C#N)cc1C(F)(F)F` (stereo not given), the IC50 in series [1] is 37 µM; in series [2] it was 41.9 µM; in series [3], 34.8 µM; in series [4], 47.2 µM. Besides, the solubility entry in series [5] and in series [6] was “Soluble” in each case.

For `CC(O)(CSc1ccc(OC(F)(F)F)cc1)C(=O)Nc1ccc(C#N)c(C(F)(F)F)c1` (stereo not given), the IC50 in series [1] stood at 46.6 µM; in series [2] it was 64 µM; in series [3], 42.8 µM; in series [4], 40.3 µM. Moreover, the solubility entry in series [5] and in series [6] was “Soluble” each time.

As for `CC(O)(COc1ccc(C#N)cc1)C(=O)Nc1ccc([N+](=O)[O-])c(C(F)(F)F)c1` (stereo not given), the IC50 in series [1] was 30.9 µM; in series [2], 32.7 µM; in series [3], 18.7 µM; in series [4], 26.9 µM. Besides, the solubility entry in series [5] and in series [6] was “Soluble” each time.

Take `CC(O)(COc1ccc(C#N)cc1)C(=O)Nc1ccc(C#N)cc1C(F)(F)F` (stereo not given): the IC50 in series [1] was determined as 42.9 µM; in series [2], 100 µM; in series [3], 34.7 µM; in series [4] it was 61.4 µM. The solubility result in series [5] and in series [6] was “Soluble” throughout.

On to `CC1(C)C(=O)N(c2ccc(C(F)(F)F)cc2)C(=O)N1c1ccc(C#N)c(C(F)(F)F)c1`, for which the IC50 amounted to 63.6 µM in series [1], 100 µM in series [2], 9.37 µM in series [3] and 30.1 µM in series [4]. Besides, the solubility entry in series [5] and in series [6] was “Soluble” throughout.

In the case of `CC(O)(CSc1ccc(C(F)(F)F)cn1)C(=O)Nc1ccc([N+](=O)[O-])cc1C(F)(F)F` (stereo not given), the IC50 in series [1] came out at 13.6 µM; in series [2] it was 19.7 µM; in series [3], 11.1 µM; in series [4] it was 17.2 µM. The solubility result in series [5] and in series [6] was “Soluble” each time.

For `C[C@](O)(CS(=O)(=O)c1ccccc1C(F)(F)F)C(=O)Nc1ccc(C#N)c(C(F)(F)F)c1`, the IC50 in series [1] worked out at 34.8 µM; in series [2], 44.3 µM; in series [3], 32.2 µM; in series [4], 37.3 µM. The solubility result in series [5] and in series [6] was “Soluble” throughout.

Take `CC(O)(COc1ccccc1C(F)(F)F)C(=O)Nc1ccc(C#N)c(C(F)(F)F)c1` (stereo not given): the IC50 in series [1] is 11.6 µM; in series [2] it was 17.3 µM; in series [3], 9.68 µM; in series [4], 16.6 µM. Moreover, the solubility entry in series [5] and in series [6] was “Soluble” throughout.

`CC(O)(CSc1ccc(F)cc1)C(=O)Nc1ccc([N+](=O)[O-])cc1C(F)(F)F` (stereo not given): the IC50 in series [1] came out at 17.6 µM; in series [2], 26.4 µM; in series [3] it was 11.9 µM; in series [4], 21.1 µM. The solubility entry in series [5] and in series [6] was “Soluble” each time.

For `C[C@](O)(CS(=O)(=O)c1ccc(F)cc1)C(=O)Nc1ccc(C#N)cc1C(F)(F)F`, the IC50 in series [1] worked out at 100 µM; in series [2] it was 100 µM; in series [3], 85.5 µM; in series [4] it was 100 µM. Also, the solubility result in series [5] and in series [6] was “Soluble” each time.

Take `CC(O)(CSc1cccc(OC(F)(F)F)c1)C(=O)Nc1ccc([N+](=O)[O-])cc1C(F)(F)F` (stereo not given): the IC50 in series [1] stood at 15.8 µM; in series [2], 21.6 µM; in series [3] it was 9.15 µM; in series [4], 15.9 µM. For the same molecule, the solubility result in series [5] and in series [6] was “Soluble” throughout.

As to `CC(O)(CSc1cccc(C(F)(F)F)c1)C(=O)Nc1ccc(C(F)(F)F)cc1` (stereo not given), the IC50 in series [1] was determined as 18.6 µM; in series [2], 30.7 µM; in series [3], 22.6 µM; in series [4], 19.5 µM. In addition, the solubility result in series [5] and in series [6] was “Soluble” in each case.

On to `CC(O)(COc1cccc(C(F)(F)F)c1)C(=O)Nc1ccc(C(F)(F)F)cc1` (stereo not given), for which the IC50 came to 25.7 µM in series [1], 27.4 µM in series [2], 18.2 µM in series [3] and 18.6 µM in series [4]. Further, the solubility result in series [5] and in series [6] was “Soluble” each time.

As to `CC(O)(CS(=O)(=O)c1ccc(F)cc1)C(=O)Nc1ccc([N+](=O)[O-])cc1C(F)(F)F` (stereo not given), the concentration for half-maximal inhibition (IC50) in series [1] is 46.7 µM; in series [2] it was 60.7 µM; in series [3], 38.6 µM; in series [4] it was 58.2 µM. Moreover, the solubility result in series [5] and in series [6] was “Soluble” each time.

For `CC(O)(CS(=O)(=O)c1ccc(F)c(F)c1)C(=O)Nc1ccc([N+](=O)[O-])cc1C(F)(F)F` (stereo not given), the IC50 in series [1] is 33.6 µM; in series [2] it was 48.1 µM; in series [3], 19.5 µM; in series [4], 37.3 µM. The solubility result in series [5] and in series [6] was “Soluble” each time.

The values are drawn from ChEMBL document CHEMBL4477199, “Design and synthesis of novel bicalutamide and enzalutamide derivatives as antiproliferative agents for the treatment of prostate cancer” (Eur J Med Chem, 2016).
